Reference: patent publication US8969516B2, “Method of hydrolysis of peptide bond” (priority 2006, dated 2015)

Test: MALDI-TOF screening of Ni^2+ dependent hydrolysis in a combinatorial peptide library
Format: physicochemical
Details: Ni^2+ 2 mM, pH 8.2, 10 mM Tris, score=24/tm
Summary of the method: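 Ni2+ 2 mM, peptide pool 1 mM (total), 10 mM Tris pH 8.2; 37 °C and 45 °C in parallel; MS aliquots at 2/4/6/8 h; products detected visually. X: all proteinogenic residues except Asp, Glu, Cys; Z: all except Cys.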

[1] = CH3CO-Gly-Ala-Thr-X-His-Z-Lys-Phe-Leu-NH2 library, 37° C.
[2] = CH3CO-Gly-Ala-Thr-X-His-Z-Lys-Phe-Leu-NH2 library, 45° C.
[3] = CH3CO-Gly-Ala-Ser-X-His-Z-Lys-Phe-Leu-NH2 library, 37° C.
[4] = CH3CO-Gly-Ala-Ser-X-His-Z-Lys-Phe-Leu-NH2 library, 45° C.

Ac-GATQHDKFL-NH2 [TQHD]
hydrolysis score from MALDI-TOF screening [1]: 0 (a score of 0 if no trace of the product of hydrolysis was seen after 8 hours of incubation) | hydrolysis score from MALDI-TOF screening [2]: 0 (a score of 0 if no trace of the product of hydrolysis was seen after 8 hours of incubation)

Ac-GATKHHKFL-NH2 [TKHH]
hydrolysis score from MALDI-TOF screening [1]: 0 (a score of 0 if no trace of the product of hydrolysis was seen after 8 hours of incubation) | hydrolysis score from MALDI-TOF screening [2]: 4 (a score of 4 for detection at 6 hours)

Ac-GASIHAKFL-NH2 [SIHA]
hydrolysis score from MALDI-TOF screening [3]: 0 (a score of 0 if no trace of the product of hydrolysis was seen after 8 hours of incubation) | hydrolysis score from MALDI-TOF screening [4]: 0 (a score of 0 if no trace of the product of hydrolysis was seen after 8 hours of incubation)

Ac-GATTHQKFL-NH2 [TTHQ]
hydrolysis score from MALDI-TOF screening [1]: 0 (a score of 0 if no trace of the product of hydrolysis was seen after 8 hours of incubation) | hydrolysis score from MALDI-TOF screening [2]: 0 (a score of 0 if no trace of the product of hydrolysis was seen after 8 hours of incubation)

Ac-GATQHTKFL-NH2 [TQHT]
hydrolysis score from MALDI-TOF screening [1]: 0 (a score of 0 if no trace of the product of hydrolysis was seen after 8 hours of incubation) | hydrolysis score from MALDI-TOF screening [2]: 0 (a score of 0 if no trace of the product of hydrolysis was seen after 8 hours of incubation)

Ac-GATLHVKFL-NH2 [TLHV]
hydrolysis score from MALDI-TOF screening [1]: 0 (a score of 0 if no trace of the product of hydrolysis was seen after 8 hours of incubation) | hydrolysis score from MALDI-TOF screening [2]: 0 (a score of 0 if no trace of the product of hydrolysis was seen after 8 hours of incubation)

Ac-GATRHEKFL-NH2 [TRHE]
hydrolysis score from MALDI-TOF screening [1]: 0 (a score of 0 if no trace of the product of hydrolysis was seen after 8 hours of incubation) | hydrolysis score from MALDI-TOF screening [2]: 0 (a score of 0 if no trace of the product of hydrolysis was seen after 8 hours of incubation)

Ac-GASQHQKFL-NH2 [SQHQ]
hydrolysis score from MALDI-TOF screening [3]: 0 (a score of 0 if no trace of the product of hydrolysis was seen after 8 hours of incubation) | hydrolysis score from MALDI-TOF screening [4]: 0 (a score of 0 if no trace of the product of hydrolysis was seen after 8 hours of incubation)

Ac-GASNHDKFL-NH2 [SNHD]
hydrolysis score from MALDI-TOF screening [3]: 0 (a score of 0 if no trace of the product of hydrolysis was seen after 8 hours of incubation) | hydrolysis score from MALDI-TOF screening [4]: 0 (a score of 0 if no trace of the product of hydrolysis was seen after 8 hours of incubation)

Ac-GATSHMKFL-NH2 [TSHM]
hydrolysis score from MALDI-TOF screening [1]: 0 (a score of 0 if no trace of the product of hydrolysis was seen after 8 hours of incubation) | hydrolysis score from MALDI-TOF screening [2]: 0 (a score of 0 if no trace of the product of hydrolysis was seen after 8 hours of incubation)

Ac-GASHHWKFL-NH2 [SHHW]
hydrolysis score from MALDI-TOF screening [3]: 6 (a score of 6 for detection at 4 hours) | hydrolysis score from MALDI-TOF screening [4]: 12 (a score of 12, if it was seen to be partially hydrolysed at 2 hours)

Ac-GATFHSKFL-NH2 [TFHS]
hydrolysis score from MALDI-TOF screening [1]: 0 (a score of 0 if no trace of the product of hydrolysis was seen after 8 hours of incubation) | hydrolysis score from MALDI-TOF screening [2]: 0 (a score of 0 if no trace of the product of hydrolysis was seen after 8 hours of incubation)

Ac-GASMHMKFL-NH2 [SMHM]
hydrolysis score from MALDI-TOF screening [3]: 3 (a score of 3 for detection at 8 hours) | hydrolysis score from MALDI-TOF screening [4]: 3 (a score of 3 for detection at 8 hours)

Ac-GATRHDKFL-NH2 [TRHD]
hydrolysis score from MALDI-TOF screening [1]: 0 (a score of 0 if no trace of the product of hydrolysis was seen after 8 hours of incubation) | hydrolysis score from MALDI-TOF screening [2]: 0 (a score of 0 if no trace of the product of hydrolysis was seen after 8 hours of incubation)

Ac-GATPHWKFL-NH2 [TPHW]
hydrolysis score from MALDI-TOF screening [2]: 0 (a score of 0 if no trace of the product of hydrolysis was seen after 8 hours of incubation)

Ac-GASSHTKFL-NH2 [SSHT]
hydrolysis score from MALDI-TOF screening [3]: 0 (a score of 0 if no trace of the product of hydrolysis was seen after 8 hours of incubation) | hydrolysis score from MALDI-TOF screening [4]: 0 (a score of 0 if no trace of the product of hydrolysis was seen after 8 hours of incubation)

Ac-GASFHYKFL-NH2 [SFHY]
hydrolysis score from MALDI-TOF screening [3]: 3 (a score of 3 for detection at 8 hours) | hydrolysis score from MALDI-TOF screening [4]: 6 (a score of 6 for detection at 4 hours)

Ac-GATNHHKFL-NH2 [TNHH]
hydrolysis score from MALDI-TOF screening [1]: 0 (a score of 0 if no trace of the product of hydrolysis was seen after 8 hours of incubation) | hydrolysis score from MALDI-TOF screening [2]: 0 (a score of 0 if no trace of the product of hydrolysis was seen after 8 hours of incubation)

Ac-GASHHKKFL-NH2 [SHHK]
hydrolysis score from MALDI-TOF screening [3]: 6 (a score of 6 for detection at 4 hours) | hydrolysis score from MALDI-TOF screening [4]: 12 (a score of 12, if it was seen to be partially hydrolysed at 2 hours)

Ac-GASRHYKFL-NH2 [SRHY]
hydrolysis score from MALDI-TOF screening [3]: 4 (a score of 4 for detection at 6 hours) | hydrolysis score from MALDI-TOF screening [4]: 6 (a score of 6 for detection at 4 hours)

Ac-GATMHEKFL-NH2 [TMHE]
hydrolysis score from MALDI-TOF screening [1]: 0 (a score of 0 if no trace of the product of hydrolysis was seen after 8 hours of incubation) | hydrolysis score from MALDI-TOF screening [2]: 0 (a score of 0 if no trace of the product of hydrolysis was seen after 8 hours of incubation)

Ac-GASTHNKFL-NH2 [STHN]
hydrolysis score from MALDI-TOF screening [3]: 0 (a score of 0 if no trace of the product of hydrolysis was seen after 8 hours of incubation) | hydrolysis score from MALDI-TOF screening [4]: 0 (a score of 0 if no trace of the product of hydrolysis was seen after 8 hours of incubation)

Ac-GASMHAKFL-NH2 [SMHA]
hydrolysis score from MALDI-TOF screening [3]: 0 (a score of 0 if no trace of the product of hydrolysis was seen after 8 hours of incubation) | hydrolysis score from MALDI-TOF screening [4]: 3 (a score of 3 for detection at 8 hours)

Ac-GASAHTKFL-NH2 [SAHT]
hydrolysis score from MALDI-TOF screening [3]: 0 (a score of 0 if no trace of the product of hydrolysis was seen after 8 hours of incubation) | hydrolysis score from MALDI-TOF screening [4]: 0 (a score of 0 if no trace of the product of hydrolysis was seen after 8 hours of incubation)

Ac-GASAHGKFL-NH2 [SAHG]
hydrolysis score from MALDI-TOF screening [3]: 0 (a score of 0 if no trace of the product of hydrolysis was seen after 8 hours of incubation) | hydrolysis score from MALDI-TOF screening [4]: 0 (a score of 0 if no trace of the product of hydrolysis was seen after 8 hours of incubation)

Ac-GATTHHKFL-NH2 [TTHH]
hydrolysis score from MALDI-TOF screening [1]: 0 (a score of 0 if no trace of the product of hydrolysis was seen after 8 hours of incubation) | hydrolysis score from MALDI-TOF screening [2]: 0 (a score of 0 if no trace of the product of hydrolysis was seen after 8 hours of incubation)

Ac-GASFHAKFL-NH2 [SFHA]
hydrolysis score from MALDI-TOF screening [3]: 0 (a score of 0 if no trace of the product of hydrolysis was seen after 8 hours of incubation) | hydrolysis score from MALDI-TOF screening [4]: 3 (a score of 3 for detection at 8 hours)

Ac-GATKHIKFL-NH2 [TKHI]
hydrolysis score from MALDI-TOF screening [1]: 4 (a score of 4 for detection at 6 hours) | hydrolysis score from MALDI-TOF screening [2]: 12 (a score of 12, if it was seen to be partially hydrolysed at 2 hours)

Ac-GASPHHKFL-NH2 [SPHH]
hydrolysis score from MALDI-TOF screening [3]: 0 (a score of 0 if no trace of the product of hydrolysis was seen after 8 hours of incubation) | hydrolysis score from MALDI-TOF screening [4]: 0 (a score of 0 if no trace of the product of hydrolysis was seen after 8 hours of incubation)

Ac-GATHHVKFL-NH2 [THHV]
hydrolysis score from MALDI-TOF screening [1]: 0 (a score of 0 if no trace of the product of hydrolysis was seen after 8 hours of incubation) | hydrolysis score from MALDI-TOF screening [2]: 6 (a score of 6 for detection at 4 hours)

Ac-GATHHLKFL-NH2 [THHL]
hydrolysis score from MALDI-TOF screening [1]: 3 (a score of 3 for detection at 8 hours) | hydrolysis score from MALDI-TOF screening [2]: 12 (a score of 12, if it was seen to be partially hydrolysed at 2 hours)

Ac-GASIHDKFL-NH2 [SIHD]
hydrolysis score from MALDI-TOF screening [3]: 0 (a score of 0 if no trace of the product of hydrolysis was seen after 8 hours of incubation) | hydrolysis score from MALDI-TOF screening [4]: 0 (a score of 0 if no trace of the product of hydrolysis was seen after 8 hours of incubation)

Ac-GASFHVKFL-NH2 [SFHV]
hydrolysis score from MALDI-TOF screening [3]: 3 (a score of 3 for detection at 8 hours) | hydrolysis score from MALDI-TOF screening [4]: 6 (a score of 6 for detection at 4 hours)

Ac-GASQHWKFL-NH2 [SQHW]
hydrolysis score from MALDI-TOF screening [3]: 6 (a score of 6 for detection at 4 hours) | hydrolysis score from MALDI-TOF screening [4]: 6 (a score of 6 for detection at 4 hours)

Ac-GASYHRKFL-NH2 [SYHR]
hydrolysis score from MALDI-TOF screening [3]: 4 (a score of 4 for detection at 6 hours) | hydrolysis score from MALDI-TOF screening [4]: 6 (a score of 6 for detection at 4 hours)
